Here are results for three molecules from patent US20130337051A1, “ADVANCED ACTIVE LIPOSOMAL LOADING OF POORLY WATER-SOLUBLE SUBSTANCES” (priority 2011, published 2013).

The nature of one data set: physchem. It is filed as physicochemical. As for the experimental part: A chemical molecule (compound B) is presented with a low molecular weight. […] The solubility is increased up to 8 mg/ml in PEG200.
A calpain inhibitor (PD 150606) is presented, having a low molecular weight of 306 Da. […] The solubility is increased up to 8 mg/ml in PEG200.

Data set [1] is described as follows: Active loading of pre-formed liposomes (encapsulation efficiency, final product). It is filed as physicochemical. As to conditions: solubilized in pure PEG200 and HPβCD; same pre-formed liposomes (calcium acetate). As for the experimental part: Liposomes may consist of different phospholipids and cholesterol in several molar ratios in order to modify the transition/processing temperature and particle stability in plasma. […] Components are dissolved in ethanol or iso-propanol. Additionally, for the purpose of increasing the (in vivo) particle stability and enhanced brain delivery, micelles consisting of DSPE-PEG-GSH (up to 5 mol %), which is synthesized before preparation of the liposomes using DSPE-PEG-MAL and fresh solutions of reduced glutathione, and/or DSPE-mPEG (Mw 2000) may be added to the solution at different mol-percentages (up to 5-10 mol % in total). The (lipid) mixture is injected in aqueous solutions containing active loading buffer of different ionic strengths (1-1000 mM), e.g. 2 mg/mL ammonium sulfate or 1 mg/mL calcium acetate. After stirring, the formed vesicles are either extruded through membranes or homogenized in an emulsifier to create liposomes of a uniform size. Alternatively, DSPE-PEG-GSH or DSPE-mPEG is added after preparation of the liposomes by incubation at 25° C. up to 60° C. for 2 up to 24 hours (depending on the phase transition temperature of the lipid mixture and the temperature sensitivity of the agent). […]
The compound is measured with UV at 295 nm at concentrations between 5-60 μg/ml. […]

[2] abbreviates: pH 7, aqueous with cosolvent or surfactant or cyclodextrin.

Structures are written as SMILES. Converted amounts (≈) assume the structure as drawn.

In general, solubility refers to the concentration that dissolves in the medium under given conditions. For the molecule `O=C(O)c1cccnc1C(=O)O` [quinolinic acid], the solubility is 3 µg/mL (≈ 18 µM) in “physchem” (pH 5, aqueous buffer); 20 µg/mL (≈ 120 µM) in the data set “physchem” (pH 6, aqueous buffer); 350 µg/mL (≈ 2090 µM) in “physchem” (pH 7, aqueous buffer); at most 2200 µg/mL in “physchem” (setting [2]); 900 µg/mL (≈ 5390 µM) in “physchem” (pH 8, aqueous buffer).
In the case of `O=C(O)/C(S)=C/c1ccc(I)cc1` [PD 150606], in the data set “physchem”, the “solubility in PEG200” value was “up to 8 mg/ml”, the solubility in water result is reported as “below 0.05 mg/ml” and the “stability at basic pH” value is reported as “decomposes”. The “active loading into pre-formed liposomes” value in data set [1] is given as “no active loading”.
Regarding `C[C@@H](Oc1cc(-c2cnn(C3CCNCC3)c2)cnc1N)c1c(Cl)ccc(F)c1Cl` [Crizotinib], the figures for the solubility in the data set “physchem” (20 °C), in the data set “physchem” (aqueous with cosolvent or surfactant or cyclodextrin) and in the data set “physchem” (setting [2]) were under 100 µg/mL, 2200 µg/mL (≈ 4890 µM) and at least 5000 µg/mL, respectively.
